Reference: patent US20250339051A1, “DYNAMIC CHEMICAL-EXCHANGE-SATURATION-TRANSFER (CEST) AGENT ENHANCED MRI USING DIRECT WATER SATURATION” (The Johns Hopkins University, priority 2024, published 2025)
Where two headings read alike, the source gives them in different places.

Key:
brain tumor patients [1] = conditions: cited from earlier work
brain tumor patients [2] = assay: DS-DGE MRI at 3 T in brain tumor patients with D-Glc infusion; design: species or system human; conditions: in vivo
Excerpt: Four brain tumor patients were studied (one with an IDH-wildtype glioblastoma, two with a grade 2 IDH-mutated astrocytoma, and one with ALK-mutated non-small-cell lung cancer metastases). The project was approved by the local Institutional Review Board, and each participant provided written informed consent. Participants were asked to fast six hours before the study, but clear liquids were permitted. Before the start of the MRI examination, blood was drawn to verify normal baseline glucose levels (3.9-7.0 mM).
Patients were examined on a 3 T Philips Elition RX system (Philips Healthcare, Best, the Netherlands). Pre- and post-contrast enhanced T1-MPRAGE, FLAIR, DS-DGE, DCE and DSC images were acquired T1-MPRAGE: TR/TE/FA=7.5 ms/3.5 ms/8°, FOV=212×212 mm^2, resolution=1.1×1.1×2.2 mm^3, inversion time=755 ms, acquisition time=1 min 46 s, and FLAIR: TR/TE=11,000/120 ms, FOV=212×212 mm^2 resolution=1.1×1.1×2.2 mm^3, inversion time=2800 ms, acquisition time=3 min 51 s.
DS-DGE images were acquired using ten consecutive 50-ms sinc-gaussian pulses (B1peak=0.5 μTtsat=0.5 s), followed by a whole-brain simultaneous multi-slice EPI readout (multi-band factor 3). A total of 27 slices with FOV of 208×208 mm^2 and a resolution of 2.2×2.2×4.4 mm^3 were acquired using TR/TE/FA=1200 ms/17 ms/52°. 32 frequencies were acquired in 38.2 s at offsets: ±[10 (2×), 5.0, 2.5, 2.0, 1.5, 1.2, 1.0, 0.80, 0.70, 0.60, 0.50, 0.40, 0.30, 0.20, 0.10] ppm. In total 40 dynamics (Z-spectra) were acquired. Approximately five minutes into the scan (after the 8th dynamic), D-Glc was administrated intravenously with a power-injector at a rate of 6.25 g/min using hospital-grade D50 glucose (D50, Hospira Inc., Lake Forest, IL; 35 g of D-Glc in 70 mL of water sterile solution prepared by the Johns Hopkins pharmacy), followed by a saline rinse. Total experiment duration was 25.5 min.
The dynamic DS spectrum signal intensities from each voxel were normalized using the average of the second of two acquisitions at ±10 ppm and then fitted to a Lorentzian line shape using the DL-based single Lorentzian fitting neural network (sLoFNet)^43. The linewidths, defined as FWHM in the DL fitting, were used to generate LW maps (in Hz) for each dynamic. The dynamic linewidth maps were rigid motion corrected using Elastix^48 and visually inspected for remaining motion artefacts.
A baseline was calculated by averaging the linewidth maps obtained before infusion. To remove outliers, baseline LWs greater or less than the average±2SD were discarded. LWbase was then calculated by averaging the remaining baseline LWs. Dynamic ΔLW images were obtained by subtracting LWbase from each linewidth dynamic image, LW(t), followed by normalization with LWbase:
Normalized area-under-the-curve (AUC) was calculated by subtracting LWbase from the average of dynamic LWs obtained from infusion start and through the dynamic scan (LWaverage), followed by normalization with LWbase:
Normalized AUC over the infusion block alone was also calculated. Both fitting and calculations were performed in Python.

[3] = cited from earlier work
[4] = cited from earlier work; remark: listed apart in the source

Q: With `O=C[C@H](O)[C@@H](O)[C@H](O)[C@H](O)CO` [D-glucose] as the compound, how does the “DGE MRI effect size” value (brain tumor patients [1]; contrast enhanced tumor area, LGG and HGG patients, maximum dose 20 g of D-Glc in 100 mL, Bender et al.) read?
A: The value was no more than 0.25%.

Q: And the “DGE MRI effect size” value (brain tumor patients [1]; glioblastoma, 3 T, Xu et al.)?
A: Its value is “approximately 1.5%”.

Q: What about the “DGE MRI effect size” value (brain tumor patients [1]; low and high grade glioma enhancement areas, dose of 25 g, Mo et al.) of the same compound?
A: The value was 0.5-1.5%.

Q: What about the “DGE MRI signal increase after D-Glc infusion” value (brain tumor patients [1]; metastases, Wu et al.) of the same compound?
A: The value was no more than 10%.

Q: What about the “ΔLW (DS linewidth change)” value (brain tumor patients [2]; (ventricular) CSF, 35 g D-glucose infusion, 3 T) of the same compound?
A: Its value is roughly 40%.

Q: What about the “ΔLW (DS linewidth change)” value (brain tumor patients [2]; GM/WM, 35 g D-glucose infusion, 3 T) of the same compound?
A: The value was “approximately 1%”.

Q: And the “ΔLW (DS linewidth change)” value (brain tumor patients [2]; contrast enhanced peri-cavity infiltrative tumor region, recurrent IDH-wildtype glioblastoma patient, during infusion)?
A: Its value is “approximately 15%”.

Q: And the “ΔLW (DS linewidth change)” value (brain tumor patients [2]; different tumor types, 35 g D-glucose infusion, 3 T)?
A: The value was 5-20%.

Q: And the LW change (brain tumor patients [2]; white matter, lung cancer brain metastases patient)?
A: The LW change was “negligible”.

Q: And the “hydroxyl proton exchange rate” value ([3]; hydroxyl pool at 0.66 ppm, pH 6.8 (TUMOR EES))?
A: Its value is 1500 Hz.

Q: And the “hydroxyl proton exchange rate” value ([3]; hydroxyl pool at 0.66 ppm, pH 7.2, 37° C.)?
A: The value was 2900 Hz.

Q: What about the “hydroxyl proton exchange rate” value ([3]; hydroxyl pool at 1.28 ppm, pH 6.8 (TUMOR EES)) of the same compound?
A: Its value is 3100 Hz.

Q: What about the “hydroxyl proton exchange rate” value ([3]; hydroxyl pool at 1.28 ppm, pH 7.2, 37° C.) of the same compound?
A: The value was 6500 Hz.

Q: What about the “hydroxyl proton exchange rate” value ([3]; hydroxyl pool at 2.08 ppm, pH 6.8 (TUMOR EES)) of the same compound?
A: The value was 2500 Hz.

Q: And the “hydroxyl proton exchange rate” value ([3]; hydroxyl pool at 2.08 ppm, pH 7.2, 37° C.)?
A: The value was 5200 Hz.

Q: And the “hydroxyl proton exchange rate” value ([3]; hydroxyl pool at 2.88 ppm, pH 6.8 (TUMOR EES))?
A: The value was 6000 Hz.

Q: And the “hydroxyl proton exchange rate” value ([3]; hydroxyl pool at 2.88 ppm, pH 7.2, 37° C.)?
A: The value was 14300 Hz.

Q: What about the “venous plasma blood glucose average increase” value ([4]; D-Glc dose of 25 g, N=11, previous DGE MRI study) of the same compound?
A: The value was 9.8 mM.

Q: What about the “increase in plasma blood glucose” value ([4]; maximum D-Glc dose of 25 g, previous DGE studies) of the same compound?
A: The value was “up to 15 mM”.
